Source: patent US20030073625A1, “Methods of preventing ventilator associated pneumonia by oral administration of antimicrobial IB-367 peptides” (priority 2001, published 2003)
Where no end group is shown, it is not given here.

Tests used:
bacteria = settings: repeated subcultures at one-half MIC; Steinberg et al., 1997; cited from earlier work
[1] = system: polymicrobial flora of the oral cavity; test: Microbicidal activity in human saliva; type: cell-based

**Q.** Which development of resistance (bacteria) does the source give for “PG-1: protegrin peptide PG-1 (RGGRLCYCRRRFCVCVGR; ends and bridges not checked; cysteine pairing not given here; UniProt P32194 131-148, looked up)” here?
**A.** The development of resistance was “did not result in the development of resistance”.

**Q.** For RGGLCYCRGRFCVCVGR [native IB-367], which “microbicidal activity in human saliva” value [1] is on record?
**A.** The value was “retains its microbicidal activity”.
